# Literature values as cited in patent publication US11957650B2, “Formulation and method for the prevention and/or treatment of hangover symptoms” (PHOENIX PHARMACEUTICALS AUSTRALIA PTY LTD, priority 2016, dated 2024).
# Tested on: acetaldehyde poisoning in rats
# Conditions: for Effective dose in rats: footnotes * and † not given
Compound,Effective dose in rats [mg],"mortality in rats poisoned with acetaldehyde, thiamine added to L-cysteine (addition of thiamine to L-cysteine [13, 14])","mortality due to acetaldehyde poisoning (L-cysteine alone [13, 14])"
Cc1ncc(C[n+]2csc(CCO)c2C)c(N)n1.Cl.[Cl-] [Thiamine•HCl],42,–,–
"Cc1ncc(C[n+]2csc(CCO)c2C)c(N)n1 [thiamine, Thiamine]",–,enhanced the ability of L-cysteine to reduce mortality,–
O=C1O[C@H]([C@@H](O)CO)C(O)=C1O [Ascorbic acid],50,–,–
N[C@@H](CS)C(=O)O [L-cysteine],34,–,markedly reduce the mortality
